Test results published in article PMC3193285 (ACS Medicinal Chemistry Letters, 2011).
pIC50: −log10 of the molar value. Converted amounts (≈) assume the structure as drawn. Where two headings read alike, the source gives them in different places.

What was measured:
TNF-α = experiment: TNF-α-induced NF-κB activation luciferase reporter counterscreen; format: cell-based; settings: Homo sapiens
[1] = tested on: NF-κB activation via doxorubicin-induced pathway; experiment: NF-κB selectivity assay, HEK 293-T cells, doxorubicin induction; format: cell-based, human
[2] = tested on: NF-κB activation via PMA/ionomycin; experiment: NF-κB selectivity assay, HEK 293-T cells, PMA/ionomycin induction; format: cell-based, human
[3] = Aqueous kinetic solubility; format: physicochemical; settings: aqueous solution, pH 6.2
[4] = Plasma protein binding, human plasma; format: in vitro ADME
[5] = Plasma protein binding, mouse plasma; format: in vitro ADME
[6] = Plasma stability, human plasma; format: in vitro ADME; settings: Plasma/PBS, compound at 1 μM, 3 h
[7] = Plasma stability, mouse plasma; format: in vitro ADME; settings: Plasma/PBS, compound at 1 μM, 3 h
[8] = Metabolic stability in human hepatic microsomes; format: in vitro ADME; settings: percent remaining at 1 h
[9] = Metabolic stability in mouse hepatic microsomes; format: in vitro ADME; settings: percent remaining at 1 h
[10] = biological target: T1, CFLT3 (Fms-like tyrosine kinase) (Homo sapiens, UniProt P36888); experiment: Ambit KinomeScreen, FLT3; settings: 10 μM
T1 sequence (P36888 27-993): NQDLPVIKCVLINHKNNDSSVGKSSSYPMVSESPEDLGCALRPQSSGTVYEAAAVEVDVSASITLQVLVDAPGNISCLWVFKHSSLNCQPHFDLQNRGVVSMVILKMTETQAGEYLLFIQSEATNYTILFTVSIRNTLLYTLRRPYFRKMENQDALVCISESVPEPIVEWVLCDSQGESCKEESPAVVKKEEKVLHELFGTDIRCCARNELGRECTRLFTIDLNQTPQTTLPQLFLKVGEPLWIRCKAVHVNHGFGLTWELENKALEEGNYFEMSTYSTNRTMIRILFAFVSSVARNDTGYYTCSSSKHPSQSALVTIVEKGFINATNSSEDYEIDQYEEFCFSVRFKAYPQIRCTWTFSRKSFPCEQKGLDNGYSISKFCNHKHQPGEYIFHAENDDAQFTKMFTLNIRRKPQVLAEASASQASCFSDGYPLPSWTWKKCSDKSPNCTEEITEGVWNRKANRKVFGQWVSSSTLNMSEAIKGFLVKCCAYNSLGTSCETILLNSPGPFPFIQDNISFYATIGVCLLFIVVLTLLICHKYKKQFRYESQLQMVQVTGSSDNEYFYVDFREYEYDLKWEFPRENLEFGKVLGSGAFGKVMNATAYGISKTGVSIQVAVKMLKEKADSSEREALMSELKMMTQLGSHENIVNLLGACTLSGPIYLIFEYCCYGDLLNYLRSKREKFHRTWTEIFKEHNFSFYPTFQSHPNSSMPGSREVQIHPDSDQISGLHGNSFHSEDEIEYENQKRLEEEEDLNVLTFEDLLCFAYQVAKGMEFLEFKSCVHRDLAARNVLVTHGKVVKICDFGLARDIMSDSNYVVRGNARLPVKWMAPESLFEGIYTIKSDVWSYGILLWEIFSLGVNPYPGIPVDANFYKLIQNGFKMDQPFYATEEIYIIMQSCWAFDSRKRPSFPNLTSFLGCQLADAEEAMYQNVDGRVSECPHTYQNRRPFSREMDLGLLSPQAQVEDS

443 kinases = experiment: Ambit KinomeScreen panel; settings: 10 μM
[11] = biological target: RIOK2 (right open reading frame) (Homo sapiens, UniProt Q9BVS4); experiment: Ambit KinomeScreen, RIOK2; settings: 10 μM
[12] = tested on: NCI 60 human tumor cell line
[13] = read-out: TNF-α (NOD1-dependent) IC50

Chain of RIOK2 (right open reading frame) (Q9BVS4 whole entry, species assumed): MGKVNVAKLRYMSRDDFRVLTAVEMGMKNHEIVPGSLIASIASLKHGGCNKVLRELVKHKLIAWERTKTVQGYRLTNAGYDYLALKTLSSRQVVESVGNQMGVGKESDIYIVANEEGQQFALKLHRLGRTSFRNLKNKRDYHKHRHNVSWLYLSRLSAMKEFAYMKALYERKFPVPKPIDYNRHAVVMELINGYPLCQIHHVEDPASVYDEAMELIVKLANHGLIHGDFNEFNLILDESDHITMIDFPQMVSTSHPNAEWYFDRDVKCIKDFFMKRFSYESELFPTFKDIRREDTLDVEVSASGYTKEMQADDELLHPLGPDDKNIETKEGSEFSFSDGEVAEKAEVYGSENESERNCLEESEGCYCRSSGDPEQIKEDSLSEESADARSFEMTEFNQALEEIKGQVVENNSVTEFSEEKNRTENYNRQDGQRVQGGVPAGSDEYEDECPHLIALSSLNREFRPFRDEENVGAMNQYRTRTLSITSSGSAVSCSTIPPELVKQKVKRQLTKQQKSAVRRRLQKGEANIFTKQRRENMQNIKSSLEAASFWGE

Row | Compound | pIC50 (TNF-α; [13]) | pIC50 (TNF-α; read-out: TNF-α IC50) | other results
1 | Nc1nc2ccccc2n1C(=O)Cc1ccccc1 [15c] | < 4.70 |  | 
2 | Cc1ccc(S(=O)(=O)n2cnc3ccccc32)cc1 [6c] | < 4.70 |  | 
3 | Nc1nc2ccccc2n1CCC(=O)c1ccc(Cl)cc1 [13c] | < 4.70 |  | 
4 | CCC(=O)N1CCc2cc(S(=O)(=O)N3CCN(c4ccc(C(C)=O)cc4)CC3)ccc21 [22a] |  | < 4.70 | 
5 | O=C(C1CC1)N1CCc2cc(S(=O)(=O)N3CCN(c4ccc([N+](=O)[O-])cc4)CC3)ccc21 [21a] |  | < 4.70 | 
6 | Cc1ccc(S(=O)(=O)n2c(N)nc3cc(C)c(C)cc32)cc1 [9c] | < 4.70 |  | 
7 | O=C(C1CC1)N1CCc2cc(S(=O)(=O)N3CCN(c4ccc(Cl)cc4)CC3)ccc21 [18a] |  | < 4.70 | 
8 | CC(=O)c1ccc(N2CCN(S(=O)(=O)c3ccc4c(c3)CCN4C(=O)C3CC3)CC2)cc1 [20a] |  | < 4.70 | 
9 | Nc1nc2ccccc2n1Cc1ccc(Cl)cc1 [10c] | < 4.70 |  | 
10 | CC(=O)N1CCc2cc(S(=O)(=O)N3CCN(c4ccc([N+](=O)[O-])cc4)CC3)ccc21 [26a] |  | < 4.70 | 
11 | COc1ccc(C(=O)Cn2c(N)nc3ccccc32)cc1 [14c] | < 4.70 |  | 
12 | N#Cc1ccc(N2CCN(S(=O)(=O)c3ccc4c(c3)CCN4C(=O)C3CC3)CC2)cc1 [19a] |  | < 4.70 | 
13 | Nc1nc2ccccc2n1S(=O)(=O)c1ccccc1 [4c] | < 4.70 |  | 
14 | Cc1ccc(S(=O)(=O)n2c(N)nc3ccccc32)cc1 [1c] | < 4.70 |  | inhibition of NF-κB activation via doxorubicin-induced pathway [1]: did not inhibit; inhibition of NF-κB activation via PMA/ionomycin [2]: did not inhibit; solubility at 18 h [3]: 2 µg/mL (≈ 6.96 µM); plasma protein binding ([4]; 1 μM): 97.5 % bound; plasma protein binding ([4]; 10 μM): 97.7 % bound; plasma protein binding ([5]; 1 μM): 95.0 % bound; plasma protein binding ([5]; 10 μM): 95.5 % bound; plasma stability [6]: 100/100 % remaining; plasma stability [7]: 100/100 % remaining; microsome stability [8]: 41.8 % remaining; microsome stability [9]: 0.8 % remaining; Inhibitory activity (reported as % control), CFLT3 [10]: 27 % C; activity against 443 kinases (443 kinases): little activity; Inhibitory activity (reported as % control), RIOK2 [11]: 6 % C; cytotoxicity in NCI 60 screen [12]: noncytotoxic
15 | CC(=O)c1ccc(N2CCN(S(=O)(=O)c3ccc4c(c3)CCN4C(C)=O)CC2)cc1 [25a] |  | < 4.70 | 
16 | Cc1ccc(S(=O)(=O)n2c(S)nc3ccc(C)cc32)cc1 [8c] | < 4.70 |  | 
17 | CC(=O)c1ccc(N2CCN(S(=O)(=O)c3ccc4c(c3)CC(C)N4C(=O)C3CC3)CC2)cc1 (stereo not shown) [7a] |  | < 4.70 | 
18 | CCC(=O)N1CCc2cc(S(=O)(=O)N3CCN(c4ccc([N+](=O)[O-])cc4)CC3)ccc21 [23a] |  | < 4.70 | 
19 | CC(=O)N1CCc2cc(S(=O)(=O)N3CCN(c4ccc(Cl)cc4)CC3)ccc21 [27a] |  | < 4.70 | 
